Reference: patent publication US12209102B2, “Heterocyclic compounds and uses thereof” (Kumquat Biosciences Inc., priority 2022, dated 2025)

Columns and labels:
K-Ras WT = biological target: T1, K-Ras WT (Homo sapiens, UniProt P01116); assay: HTRF resonance energy transfer assay, K-Ras WT / SOS1 interaction; assay type: biochemical; conditions: HTRF assay of Example 5; read-out: IC50 against K-Ras WT
T1 construct: made in house; host or cells: E. coli BL21 (DE3)
Method in brief: (§1)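 Read-out: HTRF 665/620 nm ratio (excitation 337 nm) after roughly 10 min or longer incubation, used to derive IC50. Donor anti-GST-Eu on GST-K-Ras; acceptor anti-6His-XL665 on His-hSOS1. Duplicate dose series from 10 μM down to 0.01 μM.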

GP2D cells = assay: Ras cellular assay, growth of cells with K-Ras G12D mutation (CellTiter-Glo); assay type: cell-based; conditions: cell growth, Example 9, G12D mutation, read-out: IC50 against GP2D cells
K-Ras G12S = biological target: T2, K-Ras G12S (Homo sapiens, UniProt P01116, G12S); assay: HTRF resonance energy transfer assay, K-Ras G12S / SOS1 interaction; assay type: biochemical; conditions: HTRF assay of Example 5; read-out: IC50 against K-Ras G12S
T2 construct: made in house; host or cells: E. coli BL21 (DE3)
T2 sequence (P01116 1-188 isoform P01116-2 G12S): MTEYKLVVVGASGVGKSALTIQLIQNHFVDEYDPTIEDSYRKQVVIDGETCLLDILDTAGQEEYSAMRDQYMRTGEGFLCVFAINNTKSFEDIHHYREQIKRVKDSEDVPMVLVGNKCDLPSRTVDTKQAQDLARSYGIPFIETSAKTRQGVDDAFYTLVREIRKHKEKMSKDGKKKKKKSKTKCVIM
Method in brief: as §1

K-Ras G12V = biological target: T3, K-Ras G12V (Homo sapiens, UniProt P01116, G12V); assay: HTRF resonance energy transfer assay, K-Ras G12V / SOS1 interaction; assay type: biochemical; conditions: HTRF assay of Example 5; read-out: IC50 against K-Ras G12V
T3 construct: made in house; host or cells: E. coli BL21 (DE3)
T3 sequence (P01116 1-188 isoform P01116-2 G12V): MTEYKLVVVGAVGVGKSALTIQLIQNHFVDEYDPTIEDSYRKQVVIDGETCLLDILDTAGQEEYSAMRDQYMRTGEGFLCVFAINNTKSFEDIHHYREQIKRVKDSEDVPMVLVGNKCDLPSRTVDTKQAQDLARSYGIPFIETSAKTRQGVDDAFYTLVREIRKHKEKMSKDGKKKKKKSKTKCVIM
Method in brief: as §1

K-Ras G12D = biological target: T4, K-Ras G12D (Homo sapiens, UniProt P01116, G12D); assay: HTRF resonance energy transfer assay, K-Ras G12D / SOS1 interaction; assay type: biochemical; conditions: HTRF assay of Example 5; read-out: IC50 against K-Ras G12D
T4 construct: made in house; host or cells: E. coli BL21 (DE3)
T4 sequence (P01116 1-188 isoform P01116-2 G12D): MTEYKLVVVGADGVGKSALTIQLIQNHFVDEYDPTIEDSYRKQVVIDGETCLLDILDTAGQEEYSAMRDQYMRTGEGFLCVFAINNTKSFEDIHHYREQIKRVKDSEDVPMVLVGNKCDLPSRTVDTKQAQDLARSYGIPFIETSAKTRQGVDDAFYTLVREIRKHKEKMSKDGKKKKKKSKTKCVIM
Method in brief: as §1

T1 sequence (P01116 1-188 isoform P01116-2): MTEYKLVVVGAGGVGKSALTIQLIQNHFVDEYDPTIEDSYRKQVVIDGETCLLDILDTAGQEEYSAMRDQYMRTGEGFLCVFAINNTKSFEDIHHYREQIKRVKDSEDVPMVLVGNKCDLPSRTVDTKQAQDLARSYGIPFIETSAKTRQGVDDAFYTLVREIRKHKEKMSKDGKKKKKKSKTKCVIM

Row | SMILES | IC50 (K-Ras WT) | IC50 (K-Ras G12S) | IC50 (K-Ras G12V) | IC50 (K-Ras G12D) | IC50 (GP2D cells)
1 | N#Cc1c(N)sc2c(F)ccc(-c3c(Cl)c4c5c(nc(OC[C@@]67CCCN6C[C@H](F)C7)nc5c3F)N(C3CC(NC=O)C3)CCO4)c12 (stereo partly drawn) [Compound 988, N-(3-(9-(2-amino-3-cyano-7-fluorobenzo[b]thiophen-4-yl)-8-chloro-10-fluoro-2-(((2R,7aS)-2-fluorotetrahydro-1H-pyrrolizin-7a(5H)-yl)methoxy)-5,6-dihydro-4H-[1,4]oxazepino[5,6,7-de]quinazolin-4-yl)cyclobutyl)formamide] |  |  |  |  | < 500 nM
2 | N#Cc1c(N)sc2c(F)ccc(-c3c(Cl)c4c5c(nc(OC[C@@]67CCCN6C[C@H](F)C7)nc5c3F)N(C3CCC5(C3)CN(C(=O)C3CC3)C5)CCO4)c12 (stereo partly drawn) [Compound 650, 2-amino-4-(8-chloro-4-(2-(cyclopropanecarbonyl)-2-azaspiro[3.4]octan-6-yl)-10-fluoro-2-(((2R,7aS)-2-fluorotetrahydro-1H-pyrrolizin-7a(5H)-yl)methoxy)-5,6-dihydro-4H-[1,4]oxazepino[5,6,7-de]quinazolin-9-yl)-7-fluorobenzo[b]thiophene-3-carbonitrile] |  |  |  |  | < 500 nM

Now from value to compound, other results behind:

Row | IC50 (K-Ras WT) | IC50 (K-Ras G12S) | IC50 (K-Ras G12V) | IC50 (K-Ras G12D) | SMILES | IC50 (GP2D cells)
3 | < 100 nM | < 100 nM | < 100 nM | < 100 nM | C=C(C)[C@H]1COc2c(Cl)c(-c3ccc(F)c4sc(N)c(C#N)c34)c(F)c3nc(OC[C@@]45CCCN4C[C@H](F)C5)nc(c23)N1CC(F)F [Compound 879, 2-amino-4-((5S)-8-chloro-4-(2,2-difluoroethyl)-10-fluoro-2-(((2R,7aS)-2-fluorotetrahydro-1H-pyrrolizin-7a(5H)-yl)methoxy)-5-(prop-1-en-2-yl)-5,6-dihydro-4H-[1,4]oxazepino[5,6,7-de]quinazolin-9-yl)-7-fluorobenzo[b]thiophene-3-carbonitrile] | < 500 nM
4 | < 100 nM | < 100 nM | < 100 nM | < 100 nM | CNCCN1CCOc2c(Cl)c(-c3ccc(F)c4sc(N)c(C#N)c34)c(F)c3nc(OC[C@@]45CCCN4C[C@H](F)C5)nc1c23 [Compound 961, 2-amino-4-(8-chloro-10-fluoro-2-(((2R,7aS)-2-fluorotetrahydro-1H-pyrrolizin-7a(5H)-yl)methoxy)-4-(2-(methylamino)ethyl)-5,6-dihydro-4H-[1,4]oxazepino[5,6,7-de]quinazolin-9-yl)-7-fluorobenzo[b]thiophene-3-carbonitrile] | < 500 nM
5 | < 100 nM | < 100 nM | < 100 nM | < 100 nM | N#Cc1c(N)sc2c(F)ccc(-c3c(Cl)c4c5c(nc(OC[C@@]67CCCN6C[C@H](F)C7)nc5c3F)N(CC(F)F)[C@@H](C3(O)CC3)CO4)c12 [Compound 707, 2-amino-4-((R)-8-chloro-4-(2,2-difluoroethyl)-10-fluoro-2-(((2R,7aS)-2-fluorotetrahydro-1H-pyrrolizin-7a(5H)-yl)methoxy)-5-(1-hydroxycyclopropyl)-5,6-dihydro-4H-[1,4]oxazepino[5,6,7-de]quinazolin-9-yl)-7-fluorobenzo[b]thiophene-3-carbonitrile] | < 500 nM
6 | < 100 nM | < 100 nM | < 100 nM | < 100 nM | N#Cc1c(N)sc2c(F)ccc(-c3c(Cl)c4c5c(nc(OC[C@@]67CCCN6C[C@H](F)C7)nc5c3F)N([C@@H]3CCNC3)CCO4)c12 [Compound 1124, 2-amino-4-(8-chloro-10-fluoro-2-(((2R,7aS)-2-fluorotetrahydro-1H-pyrrolizin-7a(5H)-yl)methoxy)-4-((R)-pyrrolidin-3-yl)-5,6-dihydro-4H-[1,4]oxazepino[5,6,7-de]quinazolin-9-yl)-7-fluorobenzo[b]thiophene-3-carbonitrile] | < 500 nM
